Among the test systems are 786-0 renal; A498 renal; CAKI-1 renal; DU-145 prostate; HCT-15 colon; IGROV1 ovarian; K-562 leukemia; MOLT-4 leukemia; NCI/ADR-RES ovarian; PC-3 prostate; RXF 393 renal; SK-MEL-2 melanoma; SN12C renal; SNB-19 CNS; SNB-75 CNS; U251 CNS; UACC-62 melanoma; HOP-92 NSCLC.
Common to all, as to test: NCI anticancer screen, dose series, 48 h

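Assay format: 96-well plates, 48-hour exposure. Definition used: TGI = concentration required for complete inhibition of growth.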

The source of these data is PubChem BioAssay (NCI).

With `CCCCCCC1OC23OC1CCC2C(O)CCC3O` (stereo not given), the TGI with 786-0 renal, with A498 renal, in the assay on CAKI-1 renal, in the assay with DU-145 prostate, with HCT-15 colon and with IGROV1 ovarian was greater than 100 µM each time. For the same compound, the TGI in the assay with K-562 leukemia, with MOLT-4 leukemia, in the assay on NCI/ADR-RES ovarian, in the assay on PC-3 prostate, in the assay on RXF 393 renal and in the assay with SK-MEL-2 melanoma was greater than 100 µM each time. Further, the TGI with SN12C renal, with SNB-19 CNS, in the assay on SNB-75 CNS, with U251 CNS and in the assay with UACC-62 melanoma was greater than 100 µM in each case.
`C#CCN(C(=O)C(F)(F)F)C(/C=C\C(=O)OC)(C(=O)OCC)C(=O)OCC`: the TGI in the assay on 786-0 renal, with A498 renal, with DU-145 prostate, with HCT-15 colon, in the assay with IGROV1 ovarian and with K-562 leukemia was greater than 100 µM throughout. For the same compound, the TGI in the assay with MOLT-4 leukemia, in the assay with NCI/ADR-RES ovarian, in the assay with PC-3 prostate, in the assay on RXF 393 renal, with SK-MEL-2 melanoma and in the assay with SN12C renal was greater than 100 µM throughout. Also, the TGI in the assay on SNB-19 CNS, with SNB-75 CNS, in the assay on U251 CNS and with UACC-62 melanoma was greater than 100 µM in each case.
Regarding `Clc1ccc(C(OCn2ccnc2)c2nc3ccccc3[nH]2)c(Cl)c1` (stereo not given), the TGI was greater than 100 µM with 786-0 renal; greater than 100 µM in the assay on A498 renal; greater than 100 µM in the assay on CAKI-1 renal; greater than 100 µM with DU-145 prostate; greater than 100 µM with HCT-15 colon; 10.1 µM with HOP-92 NSCLC. For the same compound, the TGI in the assay on IGROV1 ovarian, in the assay with K-562 leukemia, in the assay with MOLT-4 leukemia, in the assay with NCI/ADR-RES ovarian, with PC-3 prostate and with SK-MEL-2 melanoma was greater than 100 µM each time. The TGI in the assay on SN12C renal, in the assay on SNB-19 CNS, in the assay on SNB-75 CNS, with U251 CNS and in the assay on UACC-62 melanoma was greater than 100 µM each time.
As for `CC1(c2ccc(Cl)cc2)C=C(c2ccc(Cl)cc2)C(C#N)=C(C(C#N)C#N)N1` (stereo not given), the TGI with 786-0 renal was 26.9 µM; in the assay on A498 renal it was 33.7 µM; with CAKI-1 renal, 32.2 µM; in the assay on DU-145 prostate, 29.6 µM; with HCT-15 colon, 30.4 µM; in the assay on IGROV1 ovarian, 25.6 µM. The TGI with K-562 leukemia is greater than 100 µM; with MOLT-4 leukemia, 47 µM; in the assay on NCI/ADR-RES ovarian, 39.9 µM; with PC-3 prostate, 31.5 µM; with RXF 393 renal it was 38.2 µM; with SK-MEL-2 melanoma, 47.1 µM. The TGI is 33.5 µM in the assay on SN12C renal; 37.2 µM with SNB-19 CNS; 33.6 µM with SNB-75 CNS; 33 µM in the assay with U251 CNS; 28.2 µM in the assay on UACC-62 melanoma.
On to `COc1cc2c(cc1OCCCOc1cc3c(cc1OC)C(=O)N1CCC[C@H]1C(=O)N3)N=C[C@@H]1CCCN1C2=O`, for which the TGI was greater than 100 µM in the assay on 786-0 renal; 37.9 µM in the assay with A498 renal; 88.4 µM in the assay with CAKI-1 renal; greater than 100 µM in the assay with DU-145 prostate; greater than 100 µM in the assay on HCT-15 colon; 33.4 µM in the assay with IGROV1 ovarian. Besides, the TGI is 27.3 µM with K-562 leukemia; 1.41 µM with MOLT-4 leukemia; greater than 100 µM with NCI/ADR-RES ovarian; 57 µM in the assay on PC-3 prostate; 31 µM with RXF 393 renal; 69.6 µM with SK-MEL-2 melanoma. Further, the TGI is 61.5 µM in the assay with SN12C renal; greater than 100 µM in the assay with SNB-19 CNS; 36 µM with SNB-75 CNS; 38.8 µM in the assay with U251 CNS; 19.5 µM in the assay with UACC-62 melanoma.
Take `O=C1/C(=C/c2ccc(Br)s2)NC(=S)N1CN1CCCCC1`: the TGI is greater than 100 µM in the assay with 786-0 renal; 91.7 µM in the assay with A498 renal; 59.2 µM in the assay on CAKI-1 renal; greater than 100 µM in the assay with DU-145 prostate; greater than 100 µM in the assay with HCT-15 colon; greater than 100 µM in the assay on IGROV1 ovarian. The TGI with K-562 leukemia is 59.8 µM; in the assay on MOLT-4 leukemia it was 66.8 µM; in the assay with NCI/ADR-RES ovarian it was 98.2 µM; in the assay on PC-3 prostate, 88.3 µM; in the assay on RXF 393 renal, 60.7 µM; with SK-MEL-2 melanoma, 37.1 µM. Besides, the TGI in the assay on SN12C renal, in the assay on SNB-19 CNS, in the assay on SNB-75 CNS, in the assay with U251 CNS and in the assay with UACC-62 melanoma was greater than 100 µM throughout.
As to `O=c1c2sc3ccccc3sc=2c(=O)c2c(Cl)c(Cl)c(Cl)c(Cl)c12`, the TGI in the assay on 786-0 renal, in the assay on A498 renal, in the assay on CAKI-1 renal, in the assay with DU-145 prostate, in the assay on HCT-15 colon and in the assay on IGROV1 ovarian was greater than 100 µM in each case. In addition, the TGI in the assay with K-562 leukemia, in the assay on MOLT-4 leukemia, in the assay on NCI/ADR-RES ovarian, in the assay on PC-3 prostate, with RXF 393 renal and in the assay with SK-MEL-2 melanoma was greater than 100 µM throughout. For the same compound, the TGI in the assay with SN12C renal, in the assay with SNB-19 CNS, with SNB-75 CNS, in the assay on U251 CNS and in the assay on UACC-62 melanoma was greater than 100 µM each time.
Take `CCOC(=O)c1c(C)n(-c2ccc(C)cc2)c(=O)c2ccccc2c(=O)c2c(=O)ccc(=O)c1=2`: the TGI was greater than 100 µM in the assay with 786-0 renal; 28.1 µM with CAKI-1 renal; 39.3 µM in the assay on DU-145 prostate; 35.1 µM in the assay on HCT-15 colon; 38.2 µM in the assay on HOP-92 NSCLC; greater than 100 µM in the assay on IGROV1 ovarian. Also, the TGI in the assay with K-562 leukemia turned out to be 32.1 µM; in the assay with MOLT-4 leukemia it was 11.4 µM; in the assay on NCI/ADR-RES ovarian, 58.4 µM; with PC-3 prostate it was 56.6 µM; in the assay on RXF 393 renal, 41.3 µM; in the assay with SK-MEL-2 melanoma, 61 µM. Besides, the TGI with SN12C renal is 66.7 µM; in the assay with SNB-19 CNS it was 51.7 µM; in the assay on SNB-75 CNS, 81.7 µM; in the assay with U251 CNS, 44.9 µM; with UACC-62 melanoma, 52 µM.
